Measured values published in patent US8097646B2, “Ophthalmic preparation containing menthyl ester of indomethacin” (AlphaRx, Inc., priority 2005, dated 2012).

Key:
[1] = cited from earlier work
[2] = tested on: carrageenan paw edema; assay: Carrageenan paw edema model (Example 12, FIG. 3); format: in vivo; settings: intraperitoneally administrated, rats n=4, 1% carrageenan into hind paw
Description: FIG. 3 is a graph illustrating the comparative anti-inflammatory activity of indomethacin and MEI in a carrageenan paw edema model (rats, n=4) as described in Example 12.
FIG. 3 represents the anti-inflammatory activity of MEI in a carrageenan model. Inflammation in rats (n=4) was caused by injection of 100 microliters of sterile 1% carrageenan solution into a hind paw, originating local edema development with maximum development at 3-4 hours after administration. The contaralateral paw was injected with 100 microliters of saline and used as control. Paw volumes were measured by plethysmometry, (Ugo Basil Plethysmometer, Italy) and the calculated difference in paw volumes indicated the severity of inflammation.

[3] = Solubility of the substance in water and solvents; format: physicochemical
Description: MEI is a slightly yellow crystalline substance with a melting point of 86-90° C. […] The NMR, mass-spectrometry and FT-IR-spectrum results were: […]

[4] = Pharmacokinetics of MEI in rats after intraperitoneal administration (Example 11, FIG. 2); format: in vivo; settings: 20 mg/kg intraperitoneally, submicron emulsion (Example 6), Wistar rats
Description: FIG. 2 is a graph illustrating the pharmacokinetics of MEI in Wistar rats after intraperitoneal IP) administration (20 mg/kg, Example 6) as described in Example 11.

[5] = tested on: eye; assay: Comparison of ocular irritation levels, one drop onto the eye of volunteers (Example 10); format: in vivo, healthy volunteers; settings: ophthalmic formulation comprising MEI, volunteers n=3
Description: The ocular irritation of MEI in an ophthalmic formulation as compared with an indomethacin-containing ophthalmic preparation has been tested in 3 healthy volunteers. One drop (40-50 mcl) of the tested formulations (0.25% of MEI (as per Example 5-9), 0.1% Indocollyre®, and sterile saline as the control) was placed onto the eye of each volunteer using an appropriate dropper. The interval between sample applications was at least 24 hours The comparative irritation for MEI, indomethacin and other NSAIDs (Indocollyre®) in ophthalmic formulations is set out in Table 4 (volunteers data, n=3): The irritation scale in the above table ranges from 0-10, with 0 corresponding to no burning or itching, and 10 corresponding to extremely severe burning or itching.

Solubility in alcohol, methylene chloride and chlorophorm, ethyl acetate, glycerides and other organic solvents ([3]; organic solvents) | Solubility in propylene glycol and polyethylene glycol (PEG)-400 ([3]; propylene glycol, PEG-400) | Solubility in water ([3]; water) | Level of the parent substance (MEI itself) [4] | SMILES | pH above which the substance is unstable [1] | Anti-inflammatory activity (difference in paw volumes) [2] | Metabolism of MEI and release of indomethacin [4] | Irritation compared with indomethacin in solution [5]
– | – | – | – | COc1ccc2c(c1)c(CC(=O)O)c(C)n2C(=O)c1ccc(Cl)cc1 [Indomethacin, 1-(4-Chlorobenzoyl)-5-Methoxy-2-methyl-1H-indole-3-acetic acid] | greater than 6.0 | – | – | –
freely soluble | poorly soluble | insoluble | decreases rapidly | COc1ccc2c(c1)c(CC(=O)OC1CC(C)CCC1C(C)C)c(C)n2C(=O)c1ccc(Cl)cc1 (centres unmarked) [MEI, Menthyl ester of indomethacin] | – | high level of anti-inflammatory activity | rapidly metabolizes and releases indomethacin for a prolonged period | significantly lower irritation than indomethacin in solution
